Experimental data taken from patent US4356183A, “Antihypertensive 4-thiazolidinecarboxylic acids (pyridyl derivatives)” (Santen Pharmaceutical Co., Ltd., priority 1978, dated 1982).
Where two headings read alike, the source gives them in different places.

Legend:
[1] = test system: contractile response of isolated guinea pig ileum to angiotensin I; test: Inhibition of contractile response of isolated guinea pig ileum to angiotensin I; format: cell-based; details: angiotensin I 0.1 μg/ml, compound added 5 min before, 30° C., read-out: Angiotensin I IC50 (50% inhibition of angiotensin I activity inducing the contraction of guinea pig ileum)
Source text: As the method of measurement of angiotensin I-converting enzyme activity, bioassay for the contractile response of isolated smooth muscle or the pressor response of normal animals and biochemical assay for the enzyme isolated from lung or other organs of animals are known. The former is found more advantageous than the latter for the examination of the convertion of angiotensin I to angiotensin II in vivo.
In the present study, therefore, we adopted the bioassay for contractile response of isolated guinea pig ileum to angiotensin I.
(§1) Measurement of inhibitory activity of angiotensin I-converting enzyme
(§2) Isolated guinea pig ileum was suspended in the organ bath containing 20 ml of Tyrode's solution of 30° C. gassed with 95% O2 +5% CO2. The contraction induced by the addition of angiotensin I (0.1 μg/ml) at intervals of 10 minutes was recorded on a recticorder (Nihon Koden) for 90 seconds using FD pick up (ST-1T-H, Nihon Koden).
(§3) The test compounds were added to the bath 5 minutes before the addition of angiotensin I.
The inhibitory activity of angiotensin I-converting enzyme was calculated by the following formula. [formula] A: contractile intensity of angiotensin I before addition of the compound B: contractile intensity of angiotensin I after addition of the compound

[2] = test system: contractile response to bradykinin (isolated guinea pig ileum); test: Augmentation of contractile response of isolated guinea pig ileum to bradykinin; format: cell-based; details: bradykinin 0.005 μg/ml, compound added 5 min before, 30° C., read-out: Bradykinin AC50 (50% augmentation of bradykinin activity inducing the contraction of guinea pig ileum)
Protocol: as §2, §3
From the fact that kininase II, which destroys bradykinin having contractive action on isolated guinea pig ileum, is thought to be identical with angiotensin I-converting enzyme, augmentation of the contractile response to bradykinin by test compounds was examined by using bradykinin (0.005 μg/ml) in place of angiotensin I according to the above mentioned method.

[3] = biological target: T1, angiotensin I-converting enzyme (Oryctolagus cuniculus, UniProt P12822); test: Inhibition of angiotensin I-converting enzyme by spectrophotometry (HHL substrate); format: biochemical; details: enzyme from rabbit lung; 5 mM HHL; pH 8.3; 37° C., 30 min
T1 construct: angiotensin I-converting enzyme extracted from rabbit lung; from tissue; host or cells: rabbit lung
T1 sequence (P12822 34-1310): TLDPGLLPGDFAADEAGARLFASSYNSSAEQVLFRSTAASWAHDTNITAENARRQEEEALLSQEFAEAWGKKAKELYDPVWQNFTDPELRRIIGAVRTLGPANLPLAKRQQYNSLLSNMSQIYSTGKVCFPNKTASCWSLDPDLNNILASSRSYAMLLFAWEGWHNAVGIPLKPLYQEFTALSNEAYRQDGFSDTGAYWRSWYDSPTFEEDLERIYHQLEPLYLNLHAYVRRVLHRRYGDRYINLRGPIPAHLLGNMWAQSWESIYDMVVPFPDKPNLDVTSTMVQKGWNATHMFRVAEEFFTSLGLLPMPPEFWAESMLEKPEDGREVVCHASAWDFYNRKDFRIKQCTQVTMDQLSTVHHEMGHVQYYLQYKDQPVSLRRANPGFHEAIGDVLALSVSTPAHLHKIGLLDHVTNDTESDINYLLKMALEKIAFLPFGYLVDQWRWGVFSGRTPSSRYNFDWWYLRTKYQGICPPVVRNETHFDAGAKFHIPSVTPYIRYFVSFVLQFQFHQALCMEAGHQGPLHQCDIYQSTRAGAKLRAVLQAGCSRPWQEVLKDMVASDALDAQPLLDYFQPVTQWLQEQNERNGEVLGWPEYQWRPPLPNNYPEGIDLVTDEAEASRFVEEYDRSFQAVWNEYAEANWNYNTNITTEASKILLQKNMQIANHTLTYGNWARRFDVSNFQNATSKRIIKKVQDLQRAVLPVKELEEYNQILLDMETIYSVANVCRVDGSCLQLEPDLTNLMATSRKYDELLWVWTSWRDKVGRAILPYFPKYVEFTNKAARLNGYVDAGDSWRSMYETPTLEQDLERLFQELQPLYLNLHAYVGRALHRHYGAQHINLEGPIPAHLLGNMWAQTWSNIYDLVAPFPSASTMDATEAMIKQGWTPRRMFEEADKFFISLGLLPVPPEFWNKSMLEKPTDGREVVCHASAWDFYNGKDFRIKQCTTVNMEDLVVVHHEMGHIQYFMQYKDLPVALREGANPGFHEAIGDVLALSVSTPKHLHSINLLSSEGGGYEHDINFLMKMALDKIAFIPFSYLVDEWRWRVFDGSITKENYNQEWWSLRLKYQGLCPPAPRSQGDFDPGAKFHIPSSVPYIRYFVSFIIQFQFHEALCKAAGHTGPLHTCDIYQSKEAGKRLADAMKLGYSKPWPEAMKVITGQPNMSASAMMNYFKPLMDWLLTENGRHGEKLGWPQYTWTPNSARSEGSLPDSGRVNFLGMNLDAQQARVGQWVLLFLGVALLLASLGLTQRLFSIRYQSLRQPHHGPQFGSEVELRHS
Protocol: That is, the absorbance of hippuric acid was measured, which is liberated by incubating hippuryl-L-histidyl-L-leucine (HHL) as substrate in the presence of angiotensin I-converting enzyme extracted from rabbit lung.
as §1
The reaction mixture is as follows:
100 mM phosphate buffer (pH 8.3)
10^-3 ~10^-9 M enzyme inhibitor
0.25 ml of the above mixture was incubated at 37° C. for 30 minutes and the reaction was stopped by adding 0.25 ml of 1 N hydrochloric acid. To this solution, 1.5 ml of ethyl acetate was added in order to extract hippuric acid. 1.0 ml of ethyl acetate layer was collected and evaporated to dryness, and the residue obtained was dissolved in 1.0 ml of water.
The inhibitory activity of angiotensin I-converting enzyme was calculated by the following formula: [formula]

[4] = test system: pressor response to angiotensin I; test: Inhibition of pressor response to angiotensin I in rats after oral administration; format: in vivo, rat (male Wistar); details: angiotensin I 300 ng/kg i.v.; for Inhibition (%) of pressor response to angiotensin I, 5 min / Inhibition (%) of pressor response to angiotensin I, 15 min / Inhibition (%) of pressor response to angiotensin I, 25 min / Inhibition (%) of pressor response to angiotensin I, 35 min / Inhibition (%) of pressor response to angiotensin I, 45 min / Inhibition (%) of pressor response to angiotensin I, 55 min / Inhibition (%) of pressor response to angiotensin I, 65 min / Inhibition (%) of pressor response to angiotensin I, 75 min / Inhibition (%) of pressor response to angiotensin I, 85 min: dose: 3, 45, 49 1.8 mg/kg, 4, 46 1.3, 50 1.4, 76 2.0, 77 1.5; for Inhibition (%) of pressor response to angiotensin I, 95 min: dose: 45, 49 1.8 mg/kg, 4, 46 1.3, 50 1.4, 76 2.0, 77 1.5; for Inhibition (%) of pressor response to angiotensin I, 105 min / Inhibition (%) of pressor response to angiotensin I, 115 min: dose: 45, 49 1.8 mg/kg, 46 1.3, 50 1.4, 76 2.0, 77 1.5
Protocol: Male Wistar strain rats weighing about 200-300 g were used.
Under ether anesthesia, polyethylene cannulae are inserted into carotid arthery and jugular vein. The cannula to carotid artery is connected to an electric transducer, while the cannula to jugular vein is connected to an apparatus for continuous infusion. After the complete recovery from anesthesia, angiotensin I is infused intravenously in a dose of 300 ng/kg by the apparatus for continuous infusion, and the pressor response is recorded by polygraph (Nihon Koden, RM-150).
The compounds of this invention suspended in 0.5% tragacanth solution are administered orally in a dose of 0.3 ml per 100 g of body weight, and the pressor response to angiotensin I infused intravenously is measured with time.
The inhibitory activity of the compounds against angiotensin I-converting enzyme is expressed as the percent inhibition of pressor response to angiotensin I.

## O=C(O)[C@@H]1CSC(CCS)N1C(=O)CCS (single isomer, unassigned) [Compound 6a]
[1]; Cavia porcellus
  IC50: 410 nM
[2]
  AC50: 15 nM
[3]
  IC50: 650 nM

## O=C(O)[C@@H]1CSC(CCS)N1C(=O)CCS (single isomer, unassigned) [Compound 6b]
[1]
  IC50: 300 nM
[2]
  AC50: 3.7 nM
[3]
  IC50: 370 nM

## C[C@H](CS)C(=O)N1C(CCS)SC[C@H]1C(=O)O (single isomer, unassigned) [Compound 8a]
[1]; Cavia porcellus
  IC50: 85 nM
[2]; Cavia porcellus
  AC50: 1.4 nM
[3]
  IC50: 250 nM

## C[C@H](CS)C(=O)N1C(CCS)SC[C@H]1C(=O)O (single isomer, unassigned) [Compound 8b]
[1]
  IC50: 140 nM
[2]
  AC50: 1.1 nM
[3]
  IC50: 290 nM

## C[C@H](CS)C(=O)N1C(Cc2ccccc2)SC[C@H]1C(=O)O (single isomer, unassigned) [Compound 10a]
[1]; Cavia porcellus
  IC50: 810 nM
[2]; Cavia porcellus
  AC50: 13 nM
[3]
  IC50: 2800 nM

## C[C@H](CS)C(=O)N1C(Cc2ccccc2)SC[C@H]1C(=O)O (single isomer, unassigned) [Compound 10b]
[1]
  IC50: 580 nM
[2]
  AC50: 10 nM
[3]
  IC50: 310 nM

## CC(C)=CCCC(C)CC1SC[C@@H](C(=O)O)N1C(=O)[C@H](C)CS (stereo partly drawn) [Compound 2]
[1]; Cavia porcellus
  IC50: 480 nM
[2]; Cavia porcellus
  AC50: 19 nM
[3]
  IC50: 3200 nM

## C[C@H](CSC(=O)c1ccccc1)C(=O)N1C(C2CCCCC2)SC[C@H]1C(=O)O (stereo partly drawn) [Compound 3]
[4]
  Inhibition (%) of pressor response to angiotensin I, 5 min: 35.2%
  Inhibition (%) of pressor response to angiotensin I, 15 min: 40.8%
  Inhibition (%) of pressor response to angiotensin I, 25 min: 26.9%
  Inhibition (%) of pressor response to angiotensin I, 35 min: 17.9%
  Inhibition (%) of pressor response to angiotensin I, 45 min: 14.2%
  Inhibition (%) of pressor response to angiotensin I, 55 min: 14.8%
  Inhibition (%) of pressor response to angiotensin I, 65 min: 6.3%
  Inhibition (%) of pressor response to angiotensin I, 75 min: 9.5%
  Inhibition (%) of pressor response to angiotensin I, 85 min: 5.8%

## O=C(O)[C@@H]1CSC(c2ccccc2)N1C(=O)CS (stereo partly drawn) [Compound 12]
[1]; Cavia porcellus
  IC50: 900 nM
[2]; Cavia porcellus
  AC50: 19 nM
[3]
  IC50: 13000 nM

## O=C(O)[C@@H]1CSC(c2ccccc2)N1C(=O)CCS (stereo partly drawn) [Compound 16]
[1]; Cavia porcellus
  IC50: 240 nM
[2]; Cavia porcellus
  AC50: 2.6 nM
[3]
  IC50: 450 nM

## Cc1ccc(C2SC[C@@H](C(=O)O)N2C(=O)[C@H](C)CS)cc1 (stereo partly drawn) [Compound 22]
[1]; Cavia porcellus
  IC50: 170 nM
[2]; Cavia porcellus
  AC50: 3.9 nM
[3]
  IC50: 540 nM

## O=C(O)[C@@H]1CSC(c2ccccc2Cl)N1C(=O)CCS (stereo partly drawn) [Compound 24]
[1]; Cavia porcellus
  IC50: 700 nM
[2]; Cavia porcellus
  AC50: 16 nM
[3]
  IC50: 3600 nM

## O=C(SCCC(=O)N1C(c2ccccc2O)SC[C@H]1C(=O)O)c1ccccc1 (stereo partly drawn) [Compound 45, (4R)-3-(S-Benzoyl-3-mercaptopropanoyl)-2-(2-hydroxyphenyl)-4-thiazolidinecarboxylic acid]
[4]
  Inhibition (%) of pressor response to angiotensin I, 5 min: 20.0%
  Inhibition (%) of pressor response to angiotensin I, 15 min: 26.6%
  Inhibition (%) of pressor response to angiotensin I, 25 min: 30.1%
  Inhibition (%) of pressor response to angiotensin I, 35 min: 31.8%
  Inhibition (%) of pressor response to angiotensin I, 45 min: 20.9%
  Inhibition (%) of pressor response to angiotensin I, 55 min: 13.5%
  Inhibition (%) of pressor response to angiotensin I, 65 min: 19.0%
  Inhibition (%) of pressor response to angiotensin I, 75 min: 14.9%
  Inhibition (%) of pressor response to angiotensin I, 85 min: 20.9%
  Inhibition (%) of pressor response to angiotensin I, 95 min: 10.3%
  Inhibition (%) of pressor response to angiotensin I, 105 min: 10.3%
  Inhibition (%) of pressor response to angiotensin I, 115 min: 8.8%

## COc1ccc(C2SC[C@@H](C(=O)O)N2C(=O)[C@H](C)CSC(=O)c2ccccc2)c(O)c1 (stereo partly drawn) [Compound 76]
[4]
  Inhibition (%) of pressor response to angiotensin I, 5 min: 26.0%
  Inhibition (%) of pressor response to angiotensin I, 15 min: 45.9%
  Inhibition (%) of pressor response to angiotensin I, 25 min: 56.1%
  Inhibition (%) of pressor response to angiotensin I, 35 min: 55.9%
  Inhibition (%) of pressor response to angiotensin I, 45 min: 58.2%
  Inhibition (%) of pressor response to angiotensin I, 55 min: 47.1%
  Inhibition (%) of pressor response to angiotensin I, 65 min: 48.9%
  Inhibition (%) of pressor response to angiotensin I, 75 min: 40.7%
  Inhibition (%) of pressor response to angiotensin I, 85 min: 41.7%
  Inhibition (%) of pressor response to angiotensin I, 95 min: 32.2%
  Inhibition (%) of pressor response to angiotensin I, 105 min: 30.6%
  Inhibition (%) of pressor response to angiotensin I, 115 min: 28.5%
